From patent US9913843B2, “Protein kinase C inhibitors and uses thereof” (Rigel Pharmaceuticals, Inc., priority 2012, dated 2018) come the findings set out here.

In the assay the test system is PKC mediated IL-2 production in human primary T cells. The assay can be described thus: IL-2 ELISA, human primary T cell, anti CD3+CD28+ (whole cell functional assay for PKC mediated IL-2 production). Type of assay: cell-based. A digest of the protocol:
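Primary human T cells (PBMC-derived, expanded on plate-bound anti-CD3/CD28 with IL-2, then IL-2-washed) were pre-incubated 1 h at 37 °C with compound, then stimulated on 1 μg/ml anti-CD3 plus 5 μg/ml anti-CD28. After 24 h at 37 °C, secreted IL-2 was measured by ELISA; counter assay used 0.5 ng/ml PMA plus 0.1 μM ionomycin (final).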
For orientation: ELISA stands for enzyme-linked immunosorbent assay.

The mark [1] stands for this setting: 24 h, human primary T cells stimulated with anti-CD3 + anti-CD28, IL-2 by ELISA, read-out: IC50 for blocking IL-2 production.
Setting [2] is: human primary T cells stimulated with anti-CD3 + anti-CD28, 24 h, IL-2 by ELISA, 8 pt, read-out: IL2 ELISA, Human primary T cell, anti-CD3 + CD28, 8 pt (IC50).

Where two headings read alike, the source gives them in different places.

Broadly, the IC50 is the midpoint of a concentration-inhibition curve. For `Cn1nnn(-c2cc(Nc3ncc(C#N)c(NC[C@@H]4CCCN5CCCC[C@H]45)n3)c(F)cc2OC(C)(C)CO)c1=O` [Compound 151, 2-((2-fluoro-4-((1-hydroxy-2-methylpropan-2-yl)oxy)-5-(4-methyl-5-oxo-4,5-dihydro-1H-tetrazol-1-yl)phenyl)amino)-4-((((1S,9aR)-octahydro-2H-quinolizin-1-yl)methyl)amino)pyrimidine-5-carbonitrile], the IC50 is under 30 µM under setting [1] and 0.305 µM under setting [2].

`COc1cnc(Nc2ccc3oc(=O)[nH]c3c2)nc1NC[C@@H]1CCCN2CCCC[C@H]12` [Compound 84, 5-(4-(((1S,9aR)-octahydro-1H-quinolizin-1-yl)methylamino)-5-methoxypyrimidin-2-ylamino)benzo[d]oxazol-2(3H)-one]: the IC50 is under 30 µM under setting [1] and 15.4 µM under setting [2].

Regarding `COc1cc(Nc2ncc(Cl)c(NC[C@@H]3CCCN4CCCC[C@H]34)n2)cc(OC)c1` [Compound 43, 5-chloro-N4-(((1S,9aR)-octahydro-1H-quinolizin-1-yl)methyl)-N2-(3,5-dimethoxyphenyl)pyrimidine-2,4-diamine], the IC50 reads like this: under setting [1], under 30 µM; under setting [2], 0.412 µM.

As to `COc1cnc(Nc2ccc(C3CC3)c(C#N)c2)nc1NC[C@@H]1CCCN2CCCC[C@H]12` [Compound 81, 5-(4-(((1S,9aR)-octahydro-1H-quinolizin-1-yl)methylamino)-5-methoxypyrimidin-2-ylamino)-2-cyclopropylbenzonitrile], the half-maximal inhibitory concentration (IC50) is under 30 µM under setting [1] and 1.31 µM under setting [2].

On to `COc1cnc(Nc2cc(-n3nnn(C)c3=O)c(C3CC3)cc2F)nc1NC[C@@H]1CCCN2CCCC[C@H]12` [Compound 74, 1-(5-(4-(((1S,9aR)-octahydro-1H-quinolizin-1-yl)methylamino)-5-methoxypyrimidin-2-ylamino)-2-cyclopropyl-4-fluorophenyl)-4-methyl-1H-tetrazol-5(4H)-one], for which the IC50 reads like this: under setting [1], under 30 µM; under setting [2], 2.19 µM.

Consider `C[C@H](O)COc1cc(F)c(Nc2ncc(F)c(NC[C@@H]3CCCN4CCCC[C@H]34)n2)cc1-n1nnn(C)c1=O` [Compound 149, 1-(4-fluoro-5-((5-fluoro-4-((((1S,9aR)-octahydro-2H-quinolizin-1-yl)methyl)amino)pyrimidin-2-yl)amino)-2-((S)-2-hydroxypropoxy)phenyl)-4-methyl-1,4-dihydro-5H-tetrazol-5-one], for which the IC50 is, setting by setting: under setting [1], under 30 µM; under setting [2], 0.266 µM.

Regarding `Cc1nnnn1-c1cc(Nc2ncc(C(F)(F)F)c(NC[C@@H]3CCCN4CCCC[C@H]34)n2)ccc1F` [Compound 103, N2-(4-fluoro-3-(5-methyl-1H-tetrazol-1-yl)phenyl)-5-(trifluoromethyl)-N4-(((1S,9aR)-octahydro-1H-quinolizin-1-yl)methyl)pyrimidine-2,4-diamine], the IC50 by setting is: under setting [1], under 30 µM; under setting [2], 26.6 µM.

Consider `CCOC(=O)C(C)(C)Oc1cc(F)c(Nc2ncc(C#N)c(NC[C@@H]3CCCN4CCCC[C@H]34)n2)cc1-n1nnn(C)c1=O` [Compound 150, ethyl 2-(4-((5-cyano-4-((((1S,9aR)-octahydro-2H-quinolizin-1-yl)methyl)amino)pyrimidin-2-yl)amino)-5-fluoro-2-(4-methyl-5-oxo-4,5-dihydro-1H-tetrazol-1-yl)phenoxy)-2-methylpropanoate], for which the IC50 under setting [1] is under 30 µM and the IC50 under setting [2] was 1.14 µM.
